According to ChEMBL document CHEMBL4419167, “Compositions and methods for treating respiratory injury or disease” (2018):
Calls of active or inactive are those of the source.

Assays:
Assay type in all cases: functional, organism-based
[1] = tested on: Mus musculus; test: Suppression of lung injury in mouse model of influenza A virus H1N1 infection-induced lung injury assessed as decrease in lung edema at 30 ug/ml dosed via drinking water
[2] = tested on: Mus musculus; test: Suppression of lung injury in mouse model of Pseudomonas aeruginosa PA103 infection-induced lung injury assessed as reduction in lavage IL-1beta levels at 100 ug, ip pre-treated before infection
[3] = tested on: Mus musculus; test: Suppression of lung injury in mouse model of influenza A virus H1N1 infection-induced lung injury assessed as increase in mouse survival at 30 ug/ml dosed via drinking water
[4] = tested on: Mus musculus; test: Suppression of lung injury in mouse model of influenza A virus H1N1 infection-induced lung injury assessed as decrease in cell infiltration at 30 ug/ml dosed via drinking water by H and E staining based assay
[5] = tested on: Mus musculus; test: Suppression of lung injury in mouse model of Pseudomonas aeruginosa PA103 infection-induced lung injury assessed as reduction in cell infiltration at 100 ug, ip pre-treated before infection by H and E staining based assay
[6] = tested on: Mus musculus; test: Suppression of lung injury in mouse model of Pseudomonas aeruginosa PA103 infection-induced lung injury assessed as reduction in lavage TNFalpha levels at 100 ug, ip pre-treated before infection
[7] = tested on: Mus musculus; test: Suppression of lung injury in mouse model of Pseudomonas aeruginosa PA103 infection-induced lung injury assessed as reduction in lung resistance at 100 ug, ip pre-treated before infection
[8] = tested on: Mus musculus; test: Suppression of lung injury in mouse model of Pseudomonas aeruginosa PA103 infection-induced lung injury assessed as improve in lung volume at 100 ug, ip pre-treated before infection
[9] = tested on: Mus musculus; test: Suppression of lung injury in mouse model of Pseudomonas aeruginosa PA103 infection-induced lung injury assessed as reduction in lavage IL6 levels at 100 ug, ip pre-treated before infection
[10] = tested on: Mus musculus; test: Suppression of lung injury in mouse model of Pseudomonas aeruginosa PA103 infection-induced lung injury assessed as increase in compliance at 100 ug, ip pre-treated before infection
[11] = tested on: Mus musculus; test: Suppression of lung injury in mouse model of influenza A virus H1N1 infection-induced lung injury assessed as decrease in lavage cell counts at 30 ug/ml dosed via drinking water
[12] = tested on: Mus musculus; test: Suppression of lung injury in mouse model of Pseudomonas aeruginosa PA103 infection-induced lung injury assessed as reduction in lavage protein concentration at 100 ug, ip pre-treated before infection
[13] = tested on: Mus musculus; test: Suppression of lung injury in mouse model of influenza A virus H1N1 infection-induced lung injury assessed as increase in lung compliance at 30 ug/ml dosed via drinking water
[14] = tested on: Mus musculus; test: Suppression of lung injury in mouse model of influenza A virus H1N1 infection-induced lung injury assessed as decrease in lung elastance at 30 ug/ml dosed via drinking water
[15] = tested on: Mus musculus; test: Suppression of lung injury in mouse model of Pseudomonas aeruginosa PA103 infection-induced lung injury assessed as reduction in lavage cell counts at 100 ug, ip pre-treated before infection
[16] = tested on: Mus musculus; test: Suppression of lung injury in mouse model of influenza A virus H1N1 infection-induced lung injury assessed as decrease in lavage protein concentration at 30 ug/ml dosed via drinking water
[17] = tested on: Mus musculus; test: Suppression of lung injury in mouse model of Pseudomonas aeruginosa PA103 infection-induced lung injury assessed as reduction in lung elastance at 100 ug, ip pre-treated before infection
[18] = tested on: Mus musculus; test: Suppression of lung injury in mouse model of Pseudomonas aeruginosa PA103 infection-induced pneumonia assessed as reduction in lavage protein concentration at 30 or 150 ug, ip pre-treated before infection
[19] = tested on: Mus musculus; test: Suppression of smoke-induced chronic lung inflammation in mouse assessed as reduction in lavage protein concentration at 100 ug, ip administered as single dose injected after 5 weeks cigarette smoke exposure
[20] = tested on: Mus musculus; test: Suppression of lung injury in mouse model of Pseudomonas aeruginosa PA103 infection-induced pneumonia assessed as reduction in lavage IL6 levels at 30 or 150 ug, ip pre-treated before infection
[21] = tested on: Mus musculus; test: Suppression of smoke-induced chronic lung inflammation in mouse assessed as reduction in lavage IL2 levels at 100 ug, ip administered as single dose injected after 5 weeks cigarette smoke exposure
[22] = tested on: Mus musculus; test: Suppression of lung injury in mouse model of Pseudomonas aeruginosa PA103 infection-induced pneumonia assessed as reduction in lavage IL-1beta levels at 30 or 150 ug, ip pre-treated before infection
[23] = tested on: Mus musculus; test: Suppression of smoke-induced chronic lung inflammation in mouse assessed as reduction in lavage IL10 levels at 100 ug, ip administered as single dose injected after 5 weeks cigarette smoke exposure
[24] = tested on: Mus musculus; test: Suppression of lung injury in mouse model of Pseudomonas aeruginosa PA103 infection-induced pneumonia assessed as reduction in lavage cell counts at 30 or 150 ug, ip pre-treated before infection
[25] = tested on: Mus musculus; test: Suppression of smoke-induced chronic lung inflammation in mouse assessed as reduction in lavage IL6 levels at 100 ug, ip administered as single dose injected after 5 weeks cigarette smoke exposure
[26] = tested on: Mus musculus; test: Suppression of smoke-induced chronic lung inflammation in mouse assessed as reduction in lavage IL12 levels at 100 ug, ip administered as single dose injected after 5 weeks cigarette smoke exposure
[27] = tested on: Mus musculus; test: Suppression of smoke-induced chronic lung inflammation in mouse assessed as reduction in lavage cell counts at 100 ug, ip administered as single dose injected after 5 weeks cigarette smoke exposure
[28] = tested on: Mus musculus; test: Suppression of IMQ-induced psoriasis in BALB/c mouse model of skin inflammation assessed as reduction in ear thickness at 1 or 5 mg/kg applied topically on daily basis
[29] = tested on: Mus musculus; test: Suppression of IMQ-induced psoriasis in BALB/c mouse model of skin inflammation assessed as effect on gross appearance at 1 or 5 mg/kg applied topically on daily basis
[30] = tested on: Mus musculus; test: Suppression of lung injury in mouse model of Pseudomonas aeruginosa PA103 infection-induced pneumonia assessed as reduction in lavage TNFalpha levels at 30 or 150 ug, ip pre-treated before infection
[31] = tested on: Mus musculus; test: Suppression of smoke-induced chronic lung inflammation in mouse assessed as reduction in lavage IFNgamma levels at 100 ug, ip administered as single dose injected after 5 weeks cigarette smoke exposure
[32] = tested on: Mus musculus; test: Suppression of smoke-induced chronic lung inflammation in mouse assessed as reduction in lavage IL-1beta levels at 100 ug, ip administered as single dose injected after 5 weeks cigarette smoke exposure
[33] = tested on: Mus musculus; test: Suppression of lung injury in mouse model of Pseudomonas aeruginosa PA103 infection-induced pneumonia assessed as reduction in cell infiltration at 30 or 150 ug, ip pre-treated before infection by H and E staining based assay
[34] = tested on: Mus musculus; test: Suppression of IMQ-induced psoriasis in BALB/c mouse model of skin inflammation assessed as reduction in spleen weight at 1 or 5 mg/kg applied topically on daily basis
[35] = tested on: Mus musculus; test: Suppression of dexamethasone-induced muscle atrophy in C57BL mouse assessed as prevention of muscle wasting in TA muscle at 0.5 to 5 mg/kg/day dosed via drinking water by H and E staining based assay
[36] = tested on: Mus musculus; test: Suppression of smoke-induced chronic lung inflammation in mouse assessed as reduction in lavage TNFalpha levels at 100 ug, ip administered as single dose injected after 5 weeks cigarette smoke exposure
[37] = tested on: Mus musculus; test: Antiinflammatory activity in C57/BL mouse model of lung transplant acute rejection transplanted with BALB/C mouse left lung assessed as reduction in cell infiltration in lung at 5 mg/kg/day, ip for 2 days followed by dosing at 5 mg/kg/day via drinking water for 5 days
[38] = tested on: Mus musculus; test: Suppression of IMQ-induced psoriasis in BALB/c mouse model of skin inflammation assessed as reduction in spleen weight at 1 or 5 mg/kg dosed via drinking water on daily basis
[39] = tested on: Mus musculus; test: Suppression of lung injury in mouse model of Pseudomonas aeruginosa PA103 infection-induced pneumonia assessed as reduction in neutrophil infiltration at 30 or 150 ug, ip pre-treated before infection by May-Grunwald and Geimsa staining based assay
[40] = tested on: Mus musculus; test: Antiinflammatory activity in C57/BL mouse model of lung transplant acute rejection transplanted with BALB/C mouse left lung assessed as amelioration of neutrophilia infiltration at 5 mg/kg/day, ip for 2 days followed by dosing at 5 mg/kg/day via drinking water for 5 days
[41] = tested on: Mus musculus; test: Suppression of IMQ-induced psoriasis in BALB/c mouse model of skin inflammation assessed as effect on gross appearance at 1 or 5 mg/kg dosed via drinking water on daily basis
[42] = tested on: Mus musculus; test: Suppression of IMQ-induced psoriasis in BALB/c mouse model of skin inflammation assessed as reduction in psoriasis index at 1 or 5 mg/kg dosed via drinking water on daily basis
[43] = tested on: Mus musculus; test: Suppression of IMQ-induced psoriasis in BALB/c mouse model of skin inflammation assessed as reduction in psoriasis index at 1 or 5 mg/kg applied topically on daily basis
[44] = tested on: Mus musculus; test: Suppression of dexamethasone-induced muscle atrophy in C57BL mouse assessed as reduction in TRAF6 protein in TA muscle at 0.5 to 5 mg/kg/day dosed via drinking water by immunoblotting analysis
[45] = tested on: Mus musculus; test: Suppression of IMQ-induced psoriasis in BALB/c mouse model of skin inflammation assessed as reduction in ear thickness at 1 or 5 mg/kg dosed via drinking water on daily basis
[46] = tested on: Mus musculus; test: Suppression of dexamethasone-induced muscle atrophy in C57BL mouse assessed as reduction in tibialis anterior muscle loss at 0.5 to 5 mg/kg/day dosed via drinking water

Measured: Activity

c1ccc(-c2ccc(CNCCNCc3ccc(-c4ccccn4)cc3)cc2)nc1
active: [1] | [2] | [3] | [4] | [5] | [6] | [7] | [8] | [9] | [10] | [11] | [12] | [13] | [14] | [15] | [16] | [17]

c1cnc(-c2ccc(CNCCNCc3ccc(-c4ncccn4)cc3)cc2)nc1
not listed: [1] | [2] | [3] | [4] | [5] | [6] | [7] | [8] | [9] | [10] | [11] | [12] | [13] | [14] | [15] | [16] | [17]
active: all other assays above
